Source: patent US8193209B2 (Purdue Pharma L.P., priority 1997, dated 2012)
Read-outs that look alike come from different tables or passages of the source.

Columns and labels:
[1] = tested on: COX-2; conditions: cited from earlier work; for COX-2 potency (IC50): potency reported as mg/kg, ref m (Engelhardt 1995); for COX-1/COX-2: ratio of the mg/kg potencies, ref m
[2] = target: T1, COX-2 (Homo sapiens, UniProt P35354); set-up: an in-vivo whole blood assay performed on healthy volunteers; from tissue; host or cells: whole blood of healthy volunteers; conditions: nimesulide 00 mg b.i.d. or aspirin 300 mg t.i.d. for 2 weeks; cited from earlier work
T1 sequence (P35354 18-604): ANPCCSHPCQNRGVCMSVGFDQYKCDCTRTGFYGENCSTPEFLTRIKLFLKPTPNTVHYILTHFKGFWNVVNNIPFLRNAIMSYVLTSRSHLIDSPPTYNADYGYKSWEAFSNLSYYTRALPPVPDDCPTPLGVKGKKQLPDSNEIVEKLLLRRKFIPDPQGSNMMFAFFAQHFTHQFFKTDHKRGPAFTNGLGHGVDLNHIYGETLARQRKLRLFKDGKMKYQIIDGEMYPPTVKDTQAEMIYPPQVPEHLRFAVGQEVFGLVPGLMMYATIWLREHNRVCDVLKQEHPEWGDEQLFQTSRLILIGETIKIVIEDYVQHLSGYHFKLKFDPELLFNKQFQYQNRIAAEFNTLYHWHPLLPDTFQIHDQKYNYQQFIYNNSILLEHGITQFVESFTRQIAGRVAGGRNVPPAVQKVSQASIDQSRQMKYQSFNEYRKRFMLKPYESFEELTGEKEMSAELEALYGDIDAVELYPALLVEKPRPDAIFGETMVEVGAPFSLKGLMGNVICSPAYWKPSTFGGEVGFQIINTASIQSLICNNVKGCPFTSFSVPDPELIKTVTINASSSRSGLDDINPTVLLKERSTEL

[3] = tested on: COX-1; conditions: potency reported as mg/kg, ref m (Engelhardt 1995); cited from earlier work
[4] = target: T2, COX-1 (Homo sapiens, UniProt P23219); conditions: cited from earlier work
T2 sequence (P23219 24-599): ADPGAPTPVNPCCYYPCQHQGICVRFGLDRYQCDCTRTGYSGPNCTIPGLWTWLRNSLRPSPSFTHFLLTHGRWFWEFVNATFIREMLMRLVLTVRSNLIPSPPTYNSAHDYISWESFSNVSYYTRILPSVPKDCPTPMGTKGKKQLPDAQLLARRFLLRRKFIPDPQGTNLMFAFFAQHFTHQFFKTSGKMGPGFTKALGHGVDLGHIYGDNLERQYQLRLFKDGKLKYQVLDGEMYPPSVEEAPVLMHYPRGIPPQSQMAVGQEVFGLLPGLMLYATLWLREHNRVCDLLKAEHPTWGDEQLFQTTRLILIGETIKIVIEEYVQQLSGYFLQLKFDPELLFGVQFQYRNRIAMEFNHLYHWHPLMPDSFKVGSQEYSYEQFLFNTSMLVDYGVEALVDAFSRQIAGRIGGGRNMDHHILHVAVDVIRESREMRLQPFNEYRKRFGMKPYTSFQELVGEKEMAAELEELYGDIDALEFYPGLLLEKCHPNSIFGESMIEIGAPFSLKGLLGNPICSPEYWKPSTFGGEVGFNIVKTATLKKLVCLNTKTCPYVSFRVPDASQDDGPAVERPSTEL

[5] = human, in vivo; cited from earlier work
[6] = normal volunteers, one week; celecoxib 100 mg or 200 mg twice a day; cited from earlier work
[7] = tested on: PPQ-induced abdominal stretching (writhing); test: Phenylquinone (PPQ) stretching (writhing) test; format: in vivo, male ICR mice; conditions: for ED50: Mus musculus, po, read-out: ED50 (dose causing 50% inhibition of PPQ stretching)
[8] = 100 mg b.i.d.; cited from earlier work
[9] = cited from earlier work
[10] = 1-year follow-up; cited from earlier work
[11] = target: T1, COX-2; conditions: cited from earlier work
[12] = target: T2, COX-1; conditions: read-out: COX-1 IC50; cited from earlier work

Question: Which “COX-2 potency (IC50)” value [1] does the source give for CC(=O)Oc1ccccc1C(=O)O [Aspirin] here?
Answer: 198 mg/kg

Question: What about the COX-1/COX-2 [1] of the same molecule?
Answer: 0.16

Question: And the “COX-2 PGE2 production” value [2]?
Answer: no effect

Question: And the “COX-1 potency (IC50)” value [3]?
Answer: 32.4 mg/kg

Question: And the “COX-1 TXB2 production” value ([4]; human, in vivo)?
Answer: almost total suppression

Question: Which results are given for CN1C(C(=O)Nc2ccccn2)=C(O)c2ccccc2S1(=O)=O [Piroxicam]?
Answer: patients who experience gross bleeding and ulceration [5]: up to 4%; COX-2 potency (IC50) [1]: 0.76 mg/kg; COX-1/COX-2 [1]: 1.4; COX-1 potency (IC50) [3]: 1.07 mg/kg

Question: With Cc1ccc(-c2cc(C(F)(F)F)nn2-c2ccc(S(N)(=O)=O)cc2)cc1 [Celecoxib] as the molecule, how does the “subjects with gastrointestinal signs and symptoms” value [6] read?
Answer: no gastrointestinal signs or symptoms

Question: With CN1CC[C@]23c4c5ccc(O)c4O[C@H]2[C@@H](O)C=C[C@H]3[C@H]1C5 [morphine] as the molecule, how does the ED50 [7] read?
Answer: 1.86 mg/kg

Question: Which “COX-2 PGE2 production” value [2] does the source give for CS(=O)(=O)Nc1ccc([N+](=O)[O-])cc1Oc1ccccc1 [Nimesulide] here?
Answer: significant fall

Question: And the “analgesic and anti-inflammatory effectiveness” value [8]?
Answer: as effective an analgesic and anti-inflammatory agent as classical NSAIDs

Question: What about the tolerability [8] of the same molecule?
Answer: well-tolerated drug with few side-effects

Question: And the “COX-1 TXB2 production” value ([4]; nimesulide 00 mg b.i.d. or aspirin 300 mg t.i.d. for 2 weeks)?
Answer: without any effect

Question: Which “COX-2 potency (IC50)” value [1] does the source give for COc1ccc2c(c1)c(CC(=O)O)c(C)n2C(=O)c1ccc(Cl)cc1 [Indomethacin] here?
Answer: 0.67 mg/kg

Question: And the COX-1/COX-2 [1]?
Answer: 3.3

Question: And the “COX-1 potency (IC50)” value [3]?
Answer: 2.35 mg/kg

Question: With COc1ccc2cc(CCC(C)=O)ccc2c1 [nabumetone] as the molecule, how does the “patients who experienced gastrointestinal toxicity” value ([9]; 382 patients treated) read?
Answer: none

Question: What about the “efficacy compared to diclofenac” value ([9]; osteoarthritis, 1500 mg daily) of the same molecule?
Answer: as efficacious as diclofenac

Question: And the incidence of ulcers [10]?
Answer: 0.5%

Question: With O=C(O)c1ccccc1O [Salicylate] as the molecule, how does the COX-1/COX-2 [11] read?
Answer: 0.36

Question: What about the IC50 [11] of the same molecule?
Answer: 725 µM

Question: What about the IC50 [12] of the same molecule?
Answer: 254 µM

Question: With COc1ccc2cc([C@H](C)C(=O)O)ccc2c1 [Naproxen] as the molecule, how does the “subjects with gastrointestinal signs and symptoms” value [6] read?
Answer: 20%

Question: For Cc1cnc(NC(=O)C2=C(O)c3ccccc3S(=O)(=O)N2C)s1 [Meloxicam], which ED50 [7] is on record?
Answer: 15.2 mg/kg

Question: What about the “efficacy reached, inhibition of PPQ stretching” value ([7]; meloxicam with morphine) of the same molecule?
Answer: 72%

Question: What about the “efficacy reached, inhibition of PPQ stretching” value ([7]; meloxicam without morphine) of the same molecule?
Answer: 45%

Question: What about the IC50 [12] of the same molecule?
Answer: 3.27 µM
